From ChEMBL document CHEMBL2177061, “Factors influencing the specificity of inhibitor binding to the human and malaria parasite dihydroorotate dehydrogenases” (J Med Chem, 2012)
Substitutions are numbered along the chain they refer to.

What was measured:
[1] = target: T1, Dihydroorotate dehydrogenase (Plasmodium falciparum, UniProt Q54A96); assay: Inhibition of Plasmodium falciparum […] dehydrogenase expressed in Escherichia coli BL21(DE3) using […] as substrate by DCIP-based colorimetric analysis
T1 sequence (Q54A96 whole entry): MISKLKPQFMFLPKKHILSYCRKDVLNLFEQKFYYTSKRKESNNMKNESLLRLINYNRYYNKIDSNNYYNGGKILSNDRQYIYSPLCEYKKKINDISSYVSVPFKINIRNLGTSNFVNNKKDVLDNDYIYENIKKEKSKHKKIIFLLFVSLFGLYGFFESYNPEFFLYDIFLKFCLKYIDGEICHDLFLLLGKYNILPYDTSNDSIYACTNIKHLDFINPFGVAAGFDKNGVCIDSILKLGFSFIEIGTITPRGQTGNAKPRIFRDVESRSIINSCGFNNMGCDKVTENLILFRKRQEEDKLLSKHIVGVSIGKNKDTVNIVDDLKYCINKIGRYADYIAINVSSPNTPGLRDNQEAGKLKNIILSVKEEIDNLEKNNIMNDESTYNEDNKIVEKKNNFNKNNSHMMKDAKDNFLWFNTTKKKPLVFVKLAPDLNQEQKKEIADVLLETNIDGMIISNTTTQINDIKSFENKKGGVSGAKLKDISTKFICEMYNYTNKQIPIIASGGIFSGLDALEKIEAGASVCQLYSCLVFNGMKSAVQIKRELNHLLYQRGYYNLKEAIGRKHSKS

[2] = target: Dihydroorotate dehydrogenase (quinone), mitochondrial (Homo sapiens, UniProt Q02127); assay: Inhibition of human […] dehydrogenase expressed in Escherichia coli BL21(DE3) using […] as substrate by DCIP-based colorimetric analysis
Sequence of Dihydroorotate dehydrogenase (quinone), mitochondrial (Q02127 whole entry): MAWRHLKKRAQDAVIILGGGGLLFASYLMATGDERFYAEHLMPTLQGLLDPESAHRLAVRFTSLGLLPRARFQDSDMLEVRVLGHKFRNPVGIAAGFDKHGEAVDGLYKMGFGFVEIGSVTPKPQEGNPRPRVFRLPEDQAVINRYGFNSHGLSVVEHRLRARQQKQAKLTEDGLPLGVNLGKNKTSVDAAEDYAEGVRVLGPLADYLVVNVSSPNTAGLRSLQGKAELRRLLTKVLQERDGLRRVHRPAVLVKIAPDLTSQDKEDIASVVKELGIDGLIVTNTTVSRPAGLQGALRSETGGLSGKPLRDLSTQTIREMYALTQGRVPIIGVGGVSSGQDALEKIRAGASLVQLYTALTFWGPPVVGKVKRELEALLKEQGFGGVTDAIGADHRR

[3] = test system: Plasmodium falciparum; assay: Ratio of IC50 for Plasmodium falciparum […] dehydrogenase C276Y mutant to IC50 for Plasmodium falciparum wild type […] dehydrogenase
[4] = test system: Plasmodium falciparum; assay: Ratio of IC50 for Plasmodium falciparum […] dehydrogenase F188A mutant to IC50 for Plasmodium falciparum wild type […] dehydrogenase
[5] = test system: Plasmodium falciparum; assay: Ratio of IC50 for Plasmodium falciparum […] dehydrogenase C276F mutant to IC50 for Plasmodium falciparum wild type […] dehydrogenase
[6] = test system: Plasmodium falciparum; assay: Ratio of IC50 for Plasmodium falciparum […] dehydrogenase H185A mutant to IC50 for Plasmodium falciparum wild type […] dehydrogenase
[7] = test system: Plasmodium falciparum; assay: Ratio of IC50 for Plasmodium falciparum […] dehydrogenase C276A mutant to IC50 for Plasmodium falciparum wild type […] dehydrogenase
[8] = test system: T2, Dihydroorotate dehydrogenase (quinone), mitochondrial (Plasmodium falciparum (isolate 3D7)), Q08210 [C276Y]; assay: Inhibition of Plasmodium falciparum […] dehydrogenase C276Y mutant expressed in Escherichia coli BL21(DE3) using […] as substrate at 100 uM by DCIP-based colorimetric analysis
T2 sequence (whole entry): T1 sequence (Q54A96 whole entry) with C276Y

[9] = species: Homo sapiens; assay: Inhibition of human […] dehydrogenase Y147A mutant expressed in Escherichia coli BL21(DE3) using […] as substrate at 100 uM by DCIP-based colorimetric analysis
[10] = test system: T3, Dihydroorotate dehydrogenase (quinone), mitochondrial (Plasmodium falciparum (isolate 3D7)), Q08210 [H185A]; assay: Inhibition of Plasmodium falciparum […] dehydrogenase H185A mutant expressed in Escherichia coli BL21(DE3) using […] as substrate at 100 uM by DCIP-based colorimetric analysis
T3 sequence (whole entry): T1 sequence (Q54A96 whole entry) with H185A

[11] = test system: T4, Dihydroorotate dehydrogenase (quinone), mitochondrial (Plasmodium falciparum (isolate 3D7)), Q08210 [C276F]; assay: Inhibition of Plasmodium falciparum […] dehydrogenase C276F mutant expressed in Escherichia coli BL21(DE3) using […] as substrate at 100 uM by DCIP-based colorimetric analysis
T4 sequence (whole entry): T1 sequence (Q54A96 whole entry) with C276F

[12] = species: Homo sapiens; assay: Inhibition of human […] dehydrogenase H56A mutant expressed in Escherichia coli BL21(DE3) using […] as substrate at 100 uM by DCIP-based colorimetric analysis
[13] = species: Homo sapiens; assay: Inhibition of human […] dehydrogenase Y147C mutant expressed in Escherichia coli BL21(DE3) using […] as substrate at 100 uM by DCIP-based colorimetric analysis
[14] = test system: T5, Dihydroorotate dehydrogenase (quinone), mitochondrial (Plasmodium falciparum (isolate 3D7)), Q08210 [F188Y]; assay: Inhibition of Plasmodium falciparum […] dehydrogenase F188Y mutant expressed in Escherichia coli BL21(DE3) using […] as substrate at 100 uM by DCIP-based colorimetric analysis
T5 sequence (whole entry): T1 sequence (Q54A96 whole entry) with F188Y

[15] = species: Homo sapiens; assay: Inhibition of human […] dehydrogenase Y147F mutant expressed in Escherichia coli BL21(DE3) using […] as substrate at 100 uM by DCIP-based colorimetric analysis
[16] = species: Homo sapiens; assay: Ratio of IC50 for human dihydrofolate dehydrogenase Y147A mutant to IC50 for human wild type dihydrofolate dehydrogenase
[17] = species: Homo sapiens; assay: Ratio of IC50 for human […] dehydrogenase H56A mutant to IC50 for human wild type […] dehydrogenase
[18] = species: Homo sapiens; assay: Ratio of IC50 for human dihydrofolate dehydrogenase Y147F mutant to IC50 for human wild type dihydrofolate dehydrogenase
[19] = species: Homo sapiens; assay: Ratio of IC50 for human dihydrofolate dehydrogenase Y147C mutant to IC50 for human wild type dihydrofolate dehydrogenase

IC50 [1] [µM] | IC50 [2] [µM] | Compound | further results
> 100 | > 100 | Cc1cc(NCc2ccccc2)n2nc(SCc3ccccc3)nc2n1 | 
> 100 | > 100 | Cc1cc(N)n2nc(SCc3ccc(Cl)c(Cl)c3)nc2n1 | 
3.5 | 18 | Cc1cc(O)n2nc(SCc3c(Cl)cccc3Cl)nc2n1 | 
26 | 46 | Cc1ccc(CSc2nc3[nH]c(C)cc(=O)n3n2)cc1 | 
> 100 | 9.5 | Cc1cc(O)n2nc(SCc3ccccc3[N+](=O)[O-])nc2n1 | 
62 | 89 | Cc1cc(O)n2nc(SCc3ccccc3)nc2n1 | 
21 | 63 | COc1ccc(CSc2nc3nc(C)cc(O)n3n2)cc1 | 
19 | 30 | Cc1cc(C)cc(CSc2nc3nc(C)cc(O)n3n2)c1 | 
> 100 | 13 | CCc1cc(O)n2nc(SCc3ccc(Cl)cc3)nc2n1 | 
 |  | Cc1cc(Nc2ccc3ccccc3c2)n2ncnc2n1 | Ratio IC50 [3]: 3.5; Ratio IC50 [4]: 29; Ratio IC50 [5]: 2.3; Ratio IC50 [6]: 19; Ratio IC50 [7]: 0.69
> 100 | > 100 | Cc1cc(N)n2nc(SCc3ccccc3)nc2n1 | 
5.6 | 29 | Cc1cc(O)n2nc(SCc3cccc(Cl)c3)nc2n1 | 
33 | 32 | Cc1cc(O)n2nc(SCc3ccc(Br)cc3)nc2n1 | 
28 | 12 | Cc1cc(O)n2nc(SCc3ccccc3Cl)nc2n1 | 

Compound | IC50 [1] [µM] | IC50 [2] [µM] | further results
Cc1cc(=O)n2nc(SCc3ccc(Cl)cc3)nc2[nH]1 | 1 | 39 | inhibition [8]: < 50%; inhibition [9]: < 50%; inhibition [10]: < 50%; inhibition [11]: < 50%; inhibition [12]: < 50%; inhibition [13]: < 50%; inhibition [14]: < 50%; inhibition [15]: < 50%; Ratio IC50 [7]: 1.5
Cc1cc(O)n2nc(SCc3cc(Cl)ccc3Cl)nc2n1 | 11 | 0.051 | inhibition [8]: < 50%; inhibition [10]: < 50%; inhibition [11]: < 50%; Ratio IC50 [16]: 20; Ratio IC50 [17]: 7.1; inhibition [14]: < 50%; Ratio IC50 [18]: 1.1; Ratio IC50 [19]: 14; Ratio IC50 [7]: 3.7
Cc1cc(O)n2nc(SCc3ccc(Cl)c(Cl)c3)nc2n1 | 1.9 | 6.5 | inhibition [8]: < 50%; inhibition [9]: < 50%; inhibition [10]: < 50%; inhibition [11]: < 50%; inhibition [12]: < 50%; inhibition [13]: < 50%; inhibition [14]: < 50%; Ratio IC50 [18]: 8.8; Ratio IC50 [7]: 2
